According to PMC9502271, “An Investigation of the Anti-Depressive Properties of Phenylpropanoids and Flavonoids in Hemerocallis citrina Baroni” (Molecules, 2022):
Like-named read-outs stand apart in the source and are kept apart here.

Key:
[1] = tested on: NO production induced by LPS in BV2 cells; assay: Inhibition of NO production in LPS-induced BV2 microglial cells (Griess reagent); type: cell-based; settings: for IC50: compound test concentrations 3.125 to 100 μM, mean ± SD (n = 3), read-out: IC50 NO Inhibitory
Protocol: (§1) BV2 microglia cells were purchased from iCell Bioscience Inc. (Shanghai, China). The cells were grown at 37 °C in a humid environment with 5% CO2. In DMEM with 10% fetal bovine serum and 1% penicillin-streptomycin solution, they were maintained alive. The following assays were carried out while the cells were in the exponential growth phase (subcultured 2–3 times).
To determine how much NO is produced, the literature was consulted. Equal parts of the Griess reagent (1% sulfanilamide and 0.1% N-(1-naphthyl) ethylenediamine dihydrochloride in 2.5% phosphoric acid) were combined with the sample-treated cell culture medium for 5 min at room temperature and in the dark. It was determined that the absorbance was at 540 nm using a microplate reader. The trials were conducted simultaneously in triplicate.

BV2 microglial cells = assay: CCK8 cytotoxic activity in BV2 microglial cells; type: cell-based; settings: compound test concentrations 3.125 to 100 μM, read-out: IC50 Cell Viability
Protocol: as §1
The cytotoxic activity was assessed using the CCK8 test. In a 96-well plate, BV2 microglial cells (5 × 10^4 cells/well) were placed in each well and incubated for 12 h. After one hour with each substance, LPS (1 μg/mL) was applied to the BV2 microglia cells for an additional 24 h. The CCK8 solution was then incubated with BV2 cells for 1 h at 37 °C. The absorbance at 450 nm was measured using a plate reader (Molecular Devices, San Jose, CA, USA). The cells that had not been treated were assumed to have a 100% optical density.

[2] = Mus musculus, BV-2, LPS-induced BV2 cells
[3] = Mus musculus, BV-2, CCK8, LPS 1 μg/mL 24 h

SMILES: O=C(O)/C=C/c1ccc(O)cc1 [Compound 1, (E)-p-coumaric acid]
- IC50 [1, 2]: > 100 µM
- IC50 (BV2 microglial cells; [3]): > 100 µM

SMILES: O=C(O)/C=C\c1ccc(O)cc1 [Compound 2, (Z)-p-coumaric acid]
- IC50 [1, 2]: > 100 µM
- IC50 (BV2 microglial cells; [3]): > 100 µM

SMILES: O=C(/C=C/c1ccc(O)cc1)O[C@H]1C[C@](O)(C(=O)O)C[C@H](O)[C@H]1O [Compound 3, 3-O-(E)-p-coumaroylquinic acid]
- IC50 ([1]; LPS-induced BV2 cells): 78.5 ± 8.23 µM
- IC50 [1, 2]: < 100 µM
- IC50 (BV2 microglial cells; [3]): > 100 µM

SMILES: O=C(/C=C\c1ccc(O)cc1)O[C@H]1C[C@](O)(C(=O)O)C[C@H](O)[C@H]1O [Compound 4, 3-O-(Z)-p-coumaroylquinic acid]
- IC50 ([1]; LPS-induced BV2 cells): 70.4 ± 5.86 µM
- IC50 [1, 2]: < 100 µM
- IC50 (BV2 microglial cells; [3]): > 100 µM

SMILES: COC(=O)[C@@]1(O)C[C@H](OC(=O)/C=C/c2ccc(O)cc2)[C@H](O)[C@@H](O)C1 [Compound 5, 3-O-(E)-p-coumaroylquinic acid methyl ester]
- IC50 ([1]; LPS-induced BV2 cells): 95.8 ± 7.18 µM
- IC50 [1, 2]: < 100 µM
- IC50 (BV2 microglial cells; [3]): > 100 µM

SMILES: COC(=O)[C@@]1(O)C[C@H](OC(=O)/C=C\c2ccc(O)cc2)[C@H](O)[C@@H](O)C1 [Compound 6, 3-O-(Z)-p-coumaroylquinic acid methyl ester]
- IC50 [1, 2]: > 100 µM
- IC50 (BV2 microglial cells; [3]): > 100 µM

SMILES: O=C(C=Cc1ccc(O)cc1)OC1CC2(O)CC(OC2=O)C1O (centres unmarked) [Compound 7, 3-O-(E)-p-coumaroylquinide]
- IC50 ([1]; LPS-induced BV2 cells): 94.6 ± 5.62 µM
- IC50 (BV2 microglial cells; [3]): > 100 µM

SMILES: O=C(C=Cc1ccc(O)cc1)OC1CC2(O)CC(OC2=O)C1O (centres unmarked) [Compound 8, 3-O-(Z)-p-coumaroylquinide]
- inhibitory effects on NO production in comparison with the positive drug indomethacin ([1]; LPS-induced BV2 cells): stronger inhibitory effects
- IC50 (BV2 microglial cells; CCK8, LPS 1 μg/mL 24 h): > 100 µM

SMILES: O=C(/C=C/c1ccc(O)cc1)O[C@H]1[C@@H](O)C[C@](O)(C(=O)O)C[C@@H]1O [Compound 9, 4-O-(E)-p-coumaroylquinic acid]
- IC50 [1, 2]: > 100 µM
- IC50 (BV2 microglial cells; [3]): > 100 µM

SMILES: O=C(/C=C\c1ccc(O)cc1)O[C@H]1[C@@H](O)C[C@](O)(C(=O)O)C[C@@H]1O [Compound 10, 4-O-(Z)-p-coumaroylquinic acid]
- IC50 [1, 2]: > 100 µM
- IC50 (BV2 microglial cells; [3]): > 100 µM

SMILES: O=C(/C=C/c1ccc(O)cc1)O[C@H]1C[C@@](O)(C(=O)O)C[C@H](O)[C@@H]1O [Compound 11, 5-O-(E)-p-coumaroylquinic acid]
- IC50 [1, 2]: > 100 µM
- IC50 (BV2 microglial cells; [3]): > 100 µM

SMILES: O=C(/C=C/c1ccc(O)c(O)c1)O[C@H]1C[C@@](O)(C(=O)O)C[C@H](O)[C@@H]1O [Compound 12, neochlorogenic acid]
- IC50 [1, 2]: > 100 µM
- IC50 (BV2 microglial cells; [3]): > 100 µM

SMILES: O=C(/C=C/c1ccc(O)c(O)c1)O[C@H]1[C@@H](O)C[C@](O)(C(=O)O)C[C@@H]1O [Compound 13, crypto-chlorogenic acid]
- IC50 ([1]; LPS-induced BV2 cells): 74.4 ± 6.53 µM
- IC50 [1, 2]: < 100 µM
- IC50 (BV2 microglial cells; [3]): > 100 µM

SMILES: O=C(/C=C/c1ccc(O)c(O)c1)O[C@@H]1C[C@](O)(C(=O)O)C[C@@H](O)[C@H]1O [Compound 14, chlorogenic acid]
- IC50 [1, 2]: > 100 µM
- IC50 (BV2 microglial cells; [3]): > 100 µM

SMILES: COc1cc(/C=C/C(=O)O[C@@H]2C[C@@](O)(C(=O)O)C[C@@H](O)[C@@H]2O)ccc1O [Compound 15, 3-O-(E)-feruloylquinic acid]
- IC50 [1, 2]: > 100 µM
- IC50 (BV2 microglial cells; [3]): > 100 µM

SMILES: O=c1c(O)c(-c2ccc(O)c(O)c2)oc2cc(O)cc(O)c12 [Compound 16, quercetin]
- inhibitory effects on NO production in comparison with the positive drug indomethacin ([1]; LPS-induced BV2 cells): stronger inhibitory effects
- IC50 (BV2 microglial cells; [3]): > 100 µM

SMILES: O=c1c(O[C@@H]2O[C@H](CO)[C@H](O)[C@H](O)[C@H]2O)c(-c2ccc(O)c(O)c2)oc2cc(O)cc(O)c12 [Compound 18, quercetin-3-O-β-D-galactpyranoside]
- IC50 [1, 2]: > 100 µM
- IC50 (BV2 microglial cells; [3]): > 100 µM

SMILES: O=c1c(O[C@@H]2O[C@H](CO)[C@@H](O)[C@H](O)[C@H]2O)c(-c2ccc(O)c(O)c2)oc2cc(O)cc(O)c12 [Compound 19, quercetin-3-O-β-D-glucopyranoside]
- IC50 [1, 2]: > 100 µM
- IC50 (BV2 microglial cells; [3]): > 100 µM

SMILES: C[C@@H]1O[C@@H](OC[C@H]2O[C@@H](Oc3c(-c4ccc(O)c(O)c4)oc4cc(O)cc(O)c4c3=O)[C@H](O)[C@@H](O)[C@@H]2O)[C@H](O)[C@H](O)[C@H]1O [Compound 20, quercetin-3-O-rutinoside]
- IC50 [1, 2]: > 100 µM
- IC50 (BV2 microglial cells; [3]): > 100 µM

SMILES: C[C@@H]1O[C@@H](OC[C@H]2O[C@@H](Oc3c(-c4ccc(O)c(O)c4)oc4cc(O)cc(O)c4c3=O)[C@H](O)[C@@H](O)[C@H]2O)[C@H](O)[C@H](O)[C@H]1O [Compound 21, quercetin-3-O-α-L-rhamnopyranosyl-(1→6)-β-D-galactpyranoside]
- IC50 [1, 2]: > 100 µM
- IC50 (BV2 microglial cells; [3]): > 100 µM

SMILES: C[C@@H]1O[C@@H](OC[C@H]2O[C@@H](Oc3c(-c4ccc(O)c(O)c4)oc4cc(O)cc(O)c4c3=O)[C@H](O[C@@H]3O[C@@H](C)[C@H](O)[C@@H](O)[C@H]3O)[C@@H](O)[C@@H]2O)[C@H](O)[C@H](O)[C@H]1O [Compound 22, quercetin-3-O-α-L-rhamnopyranosyl-(1→2)-[α-L-rhamnopyranosyl-(1→6)-β-D-glucopyranoside]]
- IC50 [1, 2]: > 100 µM
- IC50 (BV2 microglial cells; [3]): > 100 µM

SMILES: C[C@@H]1O[C@@H](OC[C@H]2O[C@@H](Oc3c(-c4ccc(O)c(O)c4)oc4cc(O)cc(O)c4c3=O)[C@H](O[C@@H]3O[C@@H](C)[C@H](O)[C@@H](O)[C@H]3O)[C@@H](O)[C@H]2O)[C@H](O)[C@H](O)[C@H]1O [Compound 23, quercetin-3-O-α-L-rhamnopyranosyl-(1→2)-[α-L-rhamnopyranosyl-(1→6)-β-D-galactpyranoside]]
- IC50 [1, 2]: > 100 µM
- IC50 (BV2 microglial cells; [3]): > 100 µM

SMILES: COc1cc(-c2oc3cc(O)cc(O)c3c(=O)c2O)ccc1O [Compound 24, isorhamnetin]
- inhibitory effects on NO production in comparison with the positive drug indomethacin ([1]; LPS-induced BV2 cells): stronger inhibitory effects
- IC50 (BV2 microglial cells; [3]): > 100 µM

SMILES: COc1cc(-c2oc3cc(O)cc(O)c3c(=O)c2O[C@@H]2O[C@H](CO)[C@H](O)[C@H](O)[C@H]2O)ccc1O [Compound 25, isorhamnetin-3-O-β-D-galactopyranoside]
- inhibitory effects on NO production in comparison with the positive drug indomethacin ([1]; LPS-induced BV2 cells): stronger inhibitory effects
- IC50 (BV2 microglial cells; [3]): > 100 µM

SMILES: COc1cc(-c2oc3cc(O)cc(O)c3c(=O)c2O[C@@H]2O[C@H](CO)[C@@H](O)[C@H](O)[C@H]2O)ccc1O [Compound 26, isorhamnetin-3-O-β-D-glucopyranoside]
- IC50 [1, 2]: > 100 µM
- IC50 (BV2 microglial cells; [3]): > 100 µM

SMILES: COc1cc(-c2oc3cc(O)cc(O)c3c(=O)c2O[C@@H]2O[C@H](CO[C@@H]3O[C@@H](C)[C@H](O)[C@@H](O)[C@H]3O)[C@@H](O)[C@H](O)[C@H]2O)ccc1O [Compound 27]
- IC50 [1, 2]: > 100 µM
- IC50 (BV2 microglial cells; [3]): > 100 µM

SMILES: COc1cc(-c2oc3cc(O)cc(O)c3c(=O)c2O[C@@H]2O[C@H](CO[C@@H]3O[C@@H](C)[C@H](O)[C@@H](O)[C@H]3O)[C@H](O)[C@H](O)[C@H]2O[C@@H]2O[C@@H](C)[C@H](O)[C@@H](O)[C@H]2O)ccc1O [Compound 28, isorhamnetin-3-O-α-L-rhamnopyranosyl-(1→2)-[α-L-rhamnopyranosyl-(1→6)-β-D-galactopyranoside]]
- IC50 ([1]; LPS-induced BV2 cells): 90.7 ± 10.4 µM
- IC50 [1, 2]: < 100 µM
- IC50 (BV2 microglial cells; [3]): > 100 µM

SMILES: COc1cc(-c2oc3cc(O)cc(O)c3c(=O)c2O[C@@H]2O[C@H](CO[C@@H]3O[C@@H](C)[C@H](O)[C@@H](O)[C@H]3O)[C@@H](O)[C@H](O)[C@H]2O[C@@H]2O[C@@H](C)[C@H](O)[C@@H](O)[C@H]2O)ccc1O [Compound 29, isorhamnetin-3-O-α-L-rhamnopyranosyl-(1→2)-[α-L-rhamnopyranosyl-(1→6)-β-D-glucopyranoside]]
- IC50 [1, 2]: > 100 µM
- IC50 (BV2 microglial cells; [3]): > 100 µM

SMILES: O=c1c(O)c(-c2ccc(O)cc2)oc2cc(O)cc(O)c12 [Compound 30, kaempferol]
- inhibitory effects on NO production in comparison with the positive drug indomethacin ([1]; LPS-induced BV2 cells): stronger inhibitory effects
- IC50 (BV2 microglial cells; [3]): > 100 µM

SMILES: O=c1c(O[C@@H]2O[C@H](CO)[C@H](O)[C@H](O)[C@H]2O)c(-c2ccc(O)cc2)oc2cc(O)cc(O)c12 [Compound 32, kaempferol-3-O-β-D-galactopyranoside]
- IC50 [1, 2]: > 100 µM
- IC50 (BV2 microglial cells; [3]): > 100 µM

SMILES: O=c1c(O[C@@H]2O[C@H](CO)[C@@H](O)[C@H](O)[C@H]2O)c(-c2ccc(O)cc2)oc2cc(O)cc(O)c12 [Compound 33, kaempferol-3-O-β-D-glucopyranoside]
- IC50 [1, 2]: > 100 µM
- IC50 (BV2 microglial cells; [3]): > 100 µM

SMILES: C[C@@H]1O[C@@H](OC[C@H]2O[C@@H](Oc3c(-c4ccc(O)cc4)oc4cc(O)cc(O)c4c3=O)[C@H](O)[C@@H](O)[C@H]2O)[C@H](O)[C@H](O)[C@H]1O [Compound 34, kaempferol-3-O-α-L-rhamnopyranosyl-(1→6)-β-D-galactpyranoside]
- IC50 [1, 2]: > 100 µM
- IC50 (BV2 microglial cells; [3]): > 100 µM

SMILES: C[C@@H]1O[C@@H](OC[C@H]2O[C@@H](Oc3c(-c4ccc(O)cc4)oc4cc(O)cc(O)c4c3=O)[C@H](O)[C@@H](O)[C@@H]2O)[C@H](O)[C@H](O)[C@H]1O [Compound 35, kaempferol-3-O-α-L-rhamnopyranosyl-(1→6)-β-D-glucopyranoside]
- IC50 [1, 2]: > 100 µM
- IC50 (BV2 microglial cells; [3]): > 100 µM
